ChEMBL document CHEMBL4308884, “Development and characterization of a CNS-penetrant benzhydryl hydroxamic acid class IIa histone deacetylase inhibitor” (Bioorg Med Chem Lett, 2019)
Values after ≈ are worked out from the molar mass of the structure shown.

Assays:
[1] = Kinetic aqueous solubility of the compound; type: physicochemical; settings: buffer; read-out: Kinetic_solubility
[2] = Apparent passive permeability in MDCK cells at 10 uM after 1 hr by LC-MS/MS analysis; type: ADME, cell-based, Canis lupus familiaris; settings: dog; for Papp: mdck, 1 h, 10 µM

Cc1cnc(-c2ccc(C(C(=O)NO)c3ccccc3F)cc2)nc1 (stereo unspecified)
solubility kinetic [1]: 52 µM (≈ 17.5 µg/mL)
Papp [2]: Nd(Toxic)

O=C(NO)C(c1ccc(-c2cnccn2)cc1)c1ccccc1F (stereo unspecified)
solubility kinetic [1]: 164 µM (≈ 53 µg/mL)
Papp at 1 h, 10 µM ([2]; MDCK): 46.4 ×10⁻⁶ cm/s

O=C(NO)C(c1ccc(-c2nccc(C(F)(F)F)n2)cc1)c1ccccc1F (stereo unspecified)
solubility kinetic [1]: 141 µM (≈ 55.2 µg/mL)
Papp [2]: Nd(Toxic)
